Test [1] has as its target TYK2 (Homo sapiens, UniProt P29597). Briefly: JAK kinase activity inhibition, TR-FRET (TYK2). The format is biochemical. The settings on record: TR-FRET kinase assay. An outline of the steps:
(§1)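 Enzymatic inhibition measured by time-resolved FRET using 0.1-20 nM kinase with peptide substrate and ATP, reacted 0.5-5 hours at room temperature. Percent inhibition was normalized to DMSO (no inhibitor) and kinase-free wells, and concentration-response data were fitted with a 4-parameter logistic model.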

Test [2] deals with JAK2 (Homo sapiens, UniProt O60674). Briefly: JAK kinase activity inhibition, TR-FRET (JAK2). The class given is biochemical. The settings on record: TR-FRET kinase assay. On the procedure: (§2) Experimental objective: The objective of this test is to test the inhibitory effect of the compound on JAK kinase activity.
(§3) Experimental method: the fluorescence resonance energy transfer (TR-FRET) method was used to test the inhibitory effect of the compound on JAK kinase activity, and the half inhibitory concentration IC50 of the compound on JAK kinase activity was obtained.
(§4) Kinase reaction was carried out in a white 384-well plate (PerkinElmer). 1-5 μL of different concentrations of the compound diluted with DMSO and ddH2O was added into each well, and 1-5 μL of the corresponding solvent was added to the positive control wells, followed by addition of 0.1-20 nM JAK kinase solution diluted with 1-5 μL of kinase buffer (HEPES 50-250 mM, MgCl2 5-20 mM, etc.) was added to each well. 1-5 μL of kinase buffer was added to the negative control well. 1-5 μL of substrate mixture containing peptide substrate and ATP was added. The plate was incubated at room temperature for 0.5-5 hours. […], EDTA and detection solution containing labeled antibody was added, and then the plate was incubated at room temperature for another 1-24 hours. The fluorescence signal value at about 620 nm and 665 nm of each well was measured by BioTek Synergy H1 plate reader, and the inhibition rate was calculated by the fluorescence signal value. According to the inhibition rate of different concentrations, the IC50 of the compound was obtained by curve fitting.
(§5) The percentage inhibition data of the wells treated with the compound was calculated with the positive control wells (DMSO control wells) and negative control wells (no kinase added) on the plate {% inhibition rate=100-[(test compound value-negative control value)]/(Positive control value-negative control value)×100}. IC50 value was calculated by using GraphPad prism to fit the data of different concentrations and corresponding percentage inhibition rates to a 4-parameter non-linear logic formula.
For orientation: TR-FRET usually uses a lanthanide donor and a delayed reading to cut background.

Test [3] deals with JAK-STAT signal pathway of U266 cells. Description: Inhibition of cellular JAK-STAT signal pathway (STAT3 phosphorylation) in U266 cells. The class given is cell-based, human. The note with it: Homo sapiens, U-266, INF-a 1000 U/mL stimulation. An outline of the steps:
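U266 cells (100-300 K/well) preincubated 2 h at room temperature with serially diluted compound, then stimulated 15 min with IFN-α at 1000 U/mL final. After lysis, STAT3 phosphorylation read by LANCE Ultra TR-FRET (Eu antibody 0.5 nM, ULight antibody 5 nM, overnight) at 665 nm; IC50 from 4-parameter fit of inhibition versus DMSO and negative controls.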

In test [4] the target is T1, JAK3 (Homo sapiens, UniProt P52333).
T1 sequence (P52333 1-1124): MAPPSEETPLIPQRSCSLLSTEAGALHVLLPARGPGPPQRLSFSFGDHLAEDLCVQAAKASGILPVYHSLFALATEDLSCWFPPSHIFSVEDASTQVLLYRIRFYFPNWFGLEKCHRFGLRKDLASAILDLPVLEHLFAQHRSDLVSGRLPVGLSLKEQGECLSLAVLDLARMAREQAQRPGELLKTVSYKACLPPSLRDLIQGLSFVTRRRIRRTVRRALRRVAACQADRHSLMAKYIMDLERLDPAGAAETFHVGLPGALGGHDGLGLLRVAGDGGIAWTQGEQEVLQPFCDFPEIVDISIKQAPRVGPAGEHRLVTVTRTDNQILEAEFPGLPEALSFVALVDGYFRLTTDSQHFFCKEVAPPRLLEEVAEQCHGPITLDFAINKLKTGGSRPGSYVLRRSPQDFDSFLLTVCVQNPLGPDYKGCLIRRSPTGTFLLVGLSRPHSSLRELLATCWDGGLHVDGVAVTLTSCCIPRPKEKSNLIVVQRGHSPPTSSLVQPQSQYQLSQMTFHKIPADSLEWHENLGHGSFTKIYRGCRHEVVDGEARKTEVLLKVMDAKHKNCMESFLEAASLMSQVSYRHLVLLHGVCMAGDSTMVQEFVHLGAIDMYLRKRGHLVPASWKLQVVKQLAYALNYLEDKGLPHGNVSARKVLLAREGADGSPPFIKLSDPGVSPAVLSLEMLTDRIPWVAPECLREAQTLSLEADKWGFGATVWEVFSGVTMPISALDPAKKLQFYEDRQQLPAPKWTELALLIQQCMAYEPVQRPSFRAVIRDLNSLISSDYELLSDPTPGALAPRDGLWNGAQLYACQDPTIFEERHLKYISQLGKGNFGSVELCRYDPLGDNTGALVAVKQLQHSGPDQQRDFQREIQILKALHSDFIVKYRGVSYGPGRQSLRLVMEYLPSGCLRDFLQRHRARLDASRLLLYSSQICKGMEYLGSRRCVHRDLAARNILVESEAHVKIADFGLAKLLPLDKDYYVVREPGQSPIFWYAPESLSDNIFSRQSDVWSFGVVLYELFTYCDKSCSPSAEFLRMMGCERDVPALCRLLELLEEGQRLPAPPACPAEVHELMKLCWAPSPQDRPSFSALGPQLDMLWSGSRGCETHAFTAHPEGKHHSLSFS
Briefly: JAK kinase activity inhibition, TR-FRET (JAK3). The format is biochemical. The settings on record: TR-FRET kinase assay. On the procedure:
as §2, §3, §4, §5

Test [5] concerns the target JAK1 (Homo sapiens, UniProt P23458). Description: JAK kinase activity inhibition, TR-FRET (JAK1). The class given is biochemical. The settings on record: TR-FRET kinase assay. An outline of the steps: as §1

One may read the IC50 as the midpoint of a concentration-inhibition curve.

Sequence of TYK2 (P29597 whole entry): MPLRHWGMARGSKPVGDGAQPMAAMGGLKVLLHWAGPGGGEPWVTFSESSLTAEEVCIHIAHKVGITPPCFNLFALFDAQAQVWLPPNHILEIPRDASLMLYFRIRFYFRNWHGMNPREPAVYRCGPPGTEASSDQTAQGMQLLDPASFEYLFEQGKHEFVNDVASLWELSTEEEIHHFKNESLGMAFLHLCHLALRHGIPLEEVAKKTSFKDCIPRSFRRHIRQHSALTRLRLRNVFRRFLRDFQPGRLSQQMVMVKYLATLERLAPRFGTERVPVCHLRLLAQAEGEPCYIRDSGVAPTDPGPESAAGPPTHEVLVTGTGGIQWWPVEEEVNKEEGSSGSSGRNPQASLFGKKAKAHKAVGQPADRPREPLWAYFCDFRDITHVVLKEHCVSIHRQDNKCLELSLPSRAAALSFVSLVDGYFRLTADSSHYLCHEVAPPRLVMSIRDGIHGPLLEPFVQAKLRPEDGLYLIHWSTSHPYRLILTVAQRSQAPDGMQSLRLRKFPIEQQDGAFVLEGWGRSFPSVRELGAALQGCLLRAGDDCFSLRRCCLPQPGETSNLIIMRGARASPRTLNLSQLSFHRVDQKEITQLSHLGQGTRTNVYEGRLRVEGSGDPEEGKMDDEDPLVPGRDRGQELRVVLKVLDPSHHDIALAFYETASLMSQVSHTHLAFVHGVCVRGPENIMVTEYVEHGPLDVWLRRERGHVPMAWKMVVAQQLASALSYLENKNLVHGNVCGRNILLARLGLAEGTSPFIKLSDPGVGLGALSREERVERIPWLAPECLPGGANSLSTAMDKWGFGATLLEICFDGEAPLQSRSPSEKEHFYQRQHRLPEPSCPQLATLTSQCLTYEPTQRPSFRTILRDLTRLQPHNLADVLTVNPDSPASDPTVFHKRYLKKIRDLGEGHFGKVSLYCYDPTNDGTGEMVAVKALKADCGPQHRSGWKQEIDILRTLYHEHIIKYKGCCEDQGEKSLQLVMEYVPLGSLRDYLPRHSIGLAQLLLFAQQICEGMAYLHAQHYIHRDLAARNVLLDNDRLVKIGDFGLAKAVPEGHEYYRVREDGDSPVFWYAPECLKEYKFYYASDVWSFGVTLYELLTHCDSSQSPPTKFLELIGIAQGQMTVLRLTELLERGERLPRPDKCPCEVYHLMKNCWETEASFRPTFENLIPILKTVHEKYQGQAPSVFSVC
Sequence of JAK1 (P23458 whole entry): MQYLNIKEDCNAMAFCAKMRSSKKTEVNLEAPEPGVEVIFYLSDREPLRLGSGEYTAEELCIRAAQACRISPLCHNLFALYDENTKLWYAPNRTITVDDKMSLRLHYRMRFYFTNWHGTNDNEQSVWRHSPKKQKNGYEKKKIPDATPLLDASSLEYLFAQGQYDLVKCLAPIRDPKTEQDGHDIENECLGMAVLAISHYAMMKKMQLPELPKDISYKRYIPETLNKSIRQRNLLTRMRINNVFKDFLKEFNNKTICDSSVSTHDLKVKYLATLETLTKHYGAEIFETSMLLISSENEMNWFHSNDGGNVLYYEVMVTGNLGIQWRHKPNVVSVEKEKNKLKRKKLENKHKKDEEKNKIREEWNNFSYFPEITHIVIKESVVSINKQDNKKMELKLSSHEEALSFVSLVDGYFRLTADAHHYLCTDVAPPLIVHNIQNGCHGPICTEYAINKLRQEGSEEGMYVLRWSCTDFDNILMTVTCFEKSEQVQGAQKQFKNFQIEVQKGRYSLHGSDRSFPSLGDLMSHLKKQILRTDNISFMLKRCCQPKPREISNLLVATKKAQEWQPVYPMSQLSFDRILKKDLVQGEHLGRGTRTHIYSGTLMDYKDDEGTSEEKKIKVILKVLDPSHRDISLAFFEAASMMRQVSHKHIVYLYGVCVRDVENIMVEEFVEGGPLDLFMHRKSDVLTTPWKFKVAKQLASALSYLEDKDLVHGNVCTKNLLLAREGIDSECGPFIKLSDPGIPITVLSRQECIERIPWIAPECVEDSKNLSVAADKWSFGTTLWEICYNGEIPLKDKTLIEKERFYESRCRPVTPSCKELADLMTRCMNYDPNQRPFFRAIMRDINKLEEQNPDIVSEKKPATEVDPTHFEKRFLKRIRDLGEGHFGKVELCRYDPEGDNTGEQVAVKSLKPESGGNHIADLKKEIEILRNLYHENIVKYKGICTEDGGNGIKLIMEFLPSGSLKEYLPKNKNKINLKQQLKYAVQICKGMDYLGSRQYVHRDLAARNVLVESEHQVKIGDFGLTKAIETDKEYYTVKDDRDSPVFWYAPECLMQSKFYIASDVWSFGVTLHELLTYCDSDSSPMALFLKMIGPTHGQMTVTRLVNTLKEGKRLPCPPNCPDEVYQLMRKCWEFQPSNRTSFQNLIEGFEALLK
Sequence of JAK2 (O60674 whole entry): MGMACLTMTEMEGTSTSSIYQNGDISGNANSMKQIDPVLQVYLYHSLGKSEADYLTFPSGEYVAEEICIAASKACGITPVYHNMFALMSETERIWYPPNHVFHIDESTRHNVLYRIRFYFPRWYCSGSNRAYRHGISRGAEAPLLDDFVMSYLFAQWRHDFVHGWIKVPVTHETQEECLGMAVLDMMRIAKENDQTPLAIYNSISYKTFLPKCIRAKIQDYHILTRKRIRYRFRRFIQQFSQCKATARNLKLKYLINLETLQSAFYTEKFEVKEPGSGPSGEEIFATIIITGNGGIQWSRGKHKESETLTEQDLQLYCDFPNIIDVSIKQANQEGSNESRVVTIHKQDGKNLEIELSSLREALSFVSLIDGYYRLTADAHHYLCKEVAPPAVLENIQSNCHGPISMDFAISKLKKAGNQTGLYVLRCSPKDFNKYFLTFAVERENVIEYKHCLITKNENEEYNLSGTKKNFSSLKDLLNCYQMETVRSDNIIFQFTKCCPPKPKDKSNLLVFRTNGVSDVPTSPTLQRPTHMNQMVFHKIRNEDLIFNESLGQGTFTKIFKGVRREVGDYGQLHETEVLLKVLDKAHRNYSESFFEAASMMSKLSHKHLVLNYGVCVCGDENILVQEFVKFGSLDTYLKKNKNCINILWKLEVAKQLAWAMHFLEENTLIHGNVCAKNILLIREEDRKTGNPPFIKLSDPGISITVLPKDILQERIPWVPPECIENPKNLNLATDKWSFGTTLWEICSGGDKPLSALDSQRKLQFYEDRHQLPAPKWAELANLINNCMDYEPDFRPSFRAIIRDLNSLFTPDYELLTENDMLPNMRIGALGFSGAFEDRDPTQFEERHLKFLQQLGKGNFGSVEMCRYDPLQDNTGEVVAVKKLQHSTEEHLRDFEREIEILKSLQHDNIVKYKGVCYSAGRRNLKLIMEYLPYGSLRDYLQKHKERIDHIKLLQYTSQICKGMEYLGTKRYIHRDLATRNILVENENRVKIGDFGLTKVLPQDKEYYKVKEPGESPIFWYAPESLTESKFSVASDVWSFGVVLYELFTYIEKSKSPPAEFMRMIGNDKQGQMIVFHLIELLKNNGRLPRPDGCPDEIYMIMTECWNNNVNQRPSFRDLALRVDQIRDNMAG

For `Cc1cc(Nc2nc(N[C@@H]3C[C@H]4CC[C@@H](C3)N4CCC#N)nc3[nH]ccc23)n[nH]1` [Embodiment 3, 3-((3-exo)-3-((4-((5-methyl-1H-pyrazol-3-yl)amino)-7H-pyrrolo[2,3-d]pyrimidin-2-yl)amino)-8-azabicyclo[3.2.1]oct-8-yl)propionitrile], the IC50 in test [1] amounted to 0.17 nM; in test [2], 0.29 nM; in test [3], 4.5 nM; in test [4] it was 0.81 nM; in test [5], 0.11 nM.
On to `Cc1cc(Nc2nc(N[C@@H]3C[C@H]4CC[C@@H](C3)N4CCC#N)nc3ccccc23)n[nH]1` [Embodiment 4, 3-((3-exo)-3-((4-((5-methyl-1H-pyrazol-3-yl)amino)quinazolin-2-yl)amino)-8-azabicyclo[3.2.1]oct-8-yl)propionitrile], for which the IC50 in test [1] was found to be 0.68 nM; in test [2] it was 0.55 nM; in test [3], 2.6 nM; in test [4], 5.72 nM; in test [5], 0.86 nM.
For `Cc1cc(Nc2cc3ncccc3c(N[C@@H]3C[C@@H]4CN(CCC#N)C[C@@H]4C3)n2)n[nH]1` [Embodiment 5, 3-(cis-5-((7-((5-methyl-1H-pyrazol-3-yl)amino)-1,6-diazanaphthalen-5-yl)amino)hexahydrocyclopentadieno[c]pyrrole-2(1H)-yl)propionitrile], the IC50 in test [1] was found to be 4.44 nM; in test [2] it was 1.39 nM; in test [3], 4.12 nM; in test [4], 26.5 nM; in test [5], 0.85 nM.
Take `Cc1cc(Nc2nc(N[C@@H]3C[C@H]4CC[C@@H](C3)N4CCC#N)nc3cc[nH]c23)n[nH]1` [Embodiment 40, 3-((3-exo)-3-((4-((5-methyl-1H-pyrazol-3-yl)amino)-5H-pyrrolo[3,2-d]pyrimidin-2-yl)amino)-8-azabicyclo[3.2.1]oct-8-yl)pronionitrile]: the IC50 was found to be 1.01 nM in test [1]; 0.77 nM in test [2]; 17.4 nM in test [3]; 8.78 nM in test [4]; 0.83 nM in test [5].
For the compound `CN(c1nc(Nc2cc(CO)[nH]n2)c2ccsc2n1)[C@@H]1C[C@H]2CCC[C@@H](C1)N2S(=O)(=O)N1CC(C#N)C1` [Embodiment 132, 1-(((3-exo)-3-((4-((5-(hydroxymethyl)-1H-pyrazol-3-yl)amino)thieno[2,3-d]pyrimidin-2-yl)(methyl)amino)-9-azabicyclo[3.3.1]non-9-yl)sulfonyl)azetindin-3-formonitrile], the IC50 in test [1] was found to be 0.42 nM; in test [2], 0.77 nM; in test [3], 23.8 nM; in test [4], 3.43 nM; in test [5], 0.1 nM.
Consider `Cc1cc(Nc2nc(N[C@@H]3C[C@H]4CCC[C@@H](C3)N4S(=O)(=O)N3CC(C#N)C3)nc3ccccc23)n[nH]1` [Embodiment 217], for which the IC50 in test [1] came to 0.1 nM; in test [2], 1.61 nM; in test [3], 36.7 nM; in test [4] it was 1.92 nM; in test [5], 0.04 nM.
`COc1ccc2c(Nc3cc(C)[nH]n3)nc(N(C)[C@@H]3C[C@H]4CC[C@@H](C3)N4S(=O)(=O)N3CC(C#N)C3)nc2c1` [Embodiment 218, 1-(((3-exo)-3-((7-methoxyl-4-((5-methyl-1H-pyrazol-3-yl)amino)quinazolin-2-yl)(methyl)amino)-8-azabicyclo[3.2.1]oct-8-yl)sulfonyl)azetindin-3-formonitrile]: the IC50 in test [1] is 0.4 nM; in test [2], 1.05 nM; in test [3], 61.5 nM; in test [4], 19.6 nM; in test [5], 0.27 nM.
In the case of `COc1ccc2c(Nc3cc(C)[nH]n3)nc(N[C@@H]3C[C@H]4CCC[C@@H](C3)N4S(=O)(=O)N3CC(C#N)C3)nc2c1` [Embodiment 219, 1-(((3-exo)-3-((7-methoxyl-4-((5-methyl-1H-pyrazol-3-yl)amino)quinazolin-2-yl)amino)-9-azabicyclo[3.3.1]non-9-yl)sulfonyl)azetindin-3-formonitrile], the IC50 in test [1] came to 0.13 nM; in test [2], 0.76 nM; in test [3], 117 nM; in test [4] it was 2.61 nM; in test [5] it was 0.09 nM.

Values taken from patent US20230043863A1, “HETEROAROMATIC DERIVATIVES FOR USE AS REGULATOR, PREPARATION METHOD THEREFOR AND USE THEREOF” (JIANGSU HANSOH PHARMACEUTICAL GROUP CO., LTD., priority 2018, published 2023).
